Article PMC7822819, “Discovery of a new class of integrin antibodies for fibrosis” (Scientific Reports, 2021)

Legend:
[1] = system: CHOK1 parental cells; assay: Cell adhesion assay (Epic) on fibronectin; format: cell-based, hamster; conditions: in words
[2] = biological target: T1, CHOK1-mαvβ5 cells (Mus musculus, UniProt O70309+P43406); assay: Cell adhesion assay (Epic) on vitronectin; format: cell-based; conditions: vitronectin matrix; in words
T1 construct: expressed in transfected cells
Experimental: (§1) For plate preparation, Epic 384-well assay plates (Corning #5040) were washed with OptiMEM (Gibco #31985-070) and coated with murine fibronectin (Abcam #ab92784) at a concentration of 0.1 μg/well for CHO-a5KO-mαvβ1 cells; murine vitronectin (Abcam #ab92727) at 0.075 μg/well for CHO-mαvβ3 cells; or murine vitronectin at 0.125 μg/well for CHO-mαvβ5 (all at a volume of 25 μl/well in OptiMEM), for 1 h. Coating solution was then removed by flicking and plates were washed with OptiMEM and blocked with 25 μl/well of assay buffer [1% Ovalbumin (Sigma #A5503-10G) in OptiMEM containing 1X Pen-Strep (Gibco #15140-148)]. A 5-min baseline reading was taken on a Corning Epic Plate Reader (Model: Epic BT-157900) before removing the assay buffer and adding cells pre-incubated with inhibitors. The Epic plate reader detects cellular mass redistribution (adhesion) on the plate surface as a picometer wavelength shift over time. […] Cells were incubated with the inhibitors for 1 h at RT with gentle rocking, after which 50 μL per well was transferred to the Epic assay plate, and a time course of cell adhesion was monitored for an additional 3 h.

[3] = biological target: T2, CHOK1-mαvβ3 cells (Mus musculus, UniProt O54890+P43406); assay: Cell adhesion assay (Epic) on vitronectin; format: cell-based; conditions: vitronectin matrix; in words
T2 construct: expressed in transfected cells
T2 sequence (P43406 31-1044): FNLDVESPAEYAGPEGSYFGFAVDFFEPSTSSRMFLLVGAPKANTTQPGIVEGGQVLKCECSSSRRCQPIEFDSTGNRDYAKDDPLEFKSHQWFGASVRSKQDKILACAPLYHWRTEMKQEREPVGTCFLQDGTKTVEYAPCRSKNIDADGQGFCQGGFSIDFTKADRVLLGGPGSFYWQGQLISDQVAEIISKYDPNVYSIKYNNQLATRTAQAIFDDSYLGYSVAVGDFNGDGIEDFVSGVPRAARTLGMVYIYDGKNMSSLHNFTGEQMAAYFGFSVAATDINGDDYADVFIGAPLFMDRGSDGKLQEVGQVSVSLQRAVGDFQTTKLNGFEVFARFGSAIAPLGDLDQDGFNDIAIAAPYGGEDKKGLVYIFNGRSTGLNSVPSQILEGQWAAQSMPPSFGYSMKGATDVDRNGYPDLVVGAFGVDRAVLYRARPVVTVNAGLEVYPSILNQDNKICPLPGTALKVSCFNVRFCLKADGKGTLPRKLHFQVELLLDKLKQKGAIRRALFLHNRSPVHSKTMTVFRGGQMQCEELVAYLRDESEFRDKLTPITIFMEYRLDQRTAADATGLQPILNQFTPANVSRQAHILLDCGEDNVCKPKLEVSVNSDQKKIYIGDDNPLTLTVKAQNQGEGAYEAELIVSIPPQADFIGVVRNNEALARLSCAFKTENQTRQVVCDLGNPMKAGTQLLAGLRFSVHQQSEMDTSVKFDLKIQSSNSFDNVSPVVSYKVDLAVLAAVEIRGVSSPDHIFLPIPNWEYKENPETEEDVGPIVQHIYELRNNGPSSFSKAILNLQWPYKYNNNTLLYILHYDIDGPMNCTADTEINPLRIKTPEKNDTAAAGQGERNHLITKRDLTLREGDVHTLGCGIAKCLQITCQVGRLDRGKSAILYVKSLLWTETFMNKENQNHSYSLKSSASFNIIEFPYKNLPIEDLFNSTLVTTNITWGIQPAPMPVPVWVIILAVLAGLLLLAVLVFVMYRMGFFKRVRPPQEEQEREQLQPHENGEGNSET
T2 sequence (O54890 26-787): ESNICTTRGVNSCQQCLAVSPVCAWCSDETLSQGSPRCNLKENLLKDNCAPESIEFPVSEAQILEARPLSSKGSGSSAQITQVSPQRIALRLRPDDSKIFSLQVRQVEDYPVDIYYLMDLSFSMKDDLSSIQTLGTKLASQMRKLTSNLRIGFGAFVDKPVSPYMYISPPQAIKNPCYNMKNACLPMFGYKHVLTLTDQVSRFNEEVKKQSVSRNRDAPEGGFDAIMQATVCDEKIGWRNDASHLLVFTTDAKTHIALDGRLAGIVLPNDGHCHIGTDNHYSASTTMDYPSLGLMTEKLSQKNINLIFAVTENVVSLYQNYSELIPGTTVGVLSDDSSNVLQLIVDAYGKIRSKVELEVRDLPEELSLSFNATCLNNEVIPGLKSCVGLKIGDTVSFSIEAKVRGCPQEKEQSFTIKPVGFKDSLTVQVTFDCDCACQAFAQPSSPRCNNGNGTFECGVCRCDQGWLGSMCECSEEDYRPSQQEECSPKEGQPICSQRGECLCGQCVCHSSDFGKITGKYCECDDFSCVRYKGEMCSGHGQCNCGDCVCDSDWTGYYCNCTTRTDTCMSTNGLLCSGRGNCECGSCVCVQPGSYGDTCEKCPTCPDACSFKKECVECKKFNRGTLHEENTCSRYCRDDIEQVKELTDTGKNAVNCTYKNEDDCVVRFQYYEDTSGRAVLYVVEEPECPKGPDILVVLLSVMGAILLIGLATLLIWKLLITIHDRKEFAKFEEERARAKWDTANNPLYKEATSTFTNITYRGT
Experimental: as §1

[4] = system: normal human lung fibroblasts; assay: TGFβ-induced αSMA high-content imaging; format: cell-based; conditions: 10 μM, 30 min pre-treatment, TGFβ 5 ng/mL, 48 h
Experimental: Normal human lung fibroblasts (Lonza) and Primary Human IPF Lung Parenchymal Fibroblasts (Donor2) (BioIVT, #PCR-70-0214) were incubated at 37 °C and 5% CO2. To induce fibrotic response in primary cells, a final concentration of 5 ng/ml of recombinant human TGFβ1 (BioLegend, #580702) was added to the culture media and treated for 24 ~ 48 h. Anti-TGFβ neutralizing antibody (1D11) and the isotype control mouse IgG1 were from BioXcell. SB-525334 and bleomycin were from Sigma. MK-0429 was synthesized by Merck & Co., Inc., Kenilworth, NJ, USA. CHOK1-integrin stable lines were cultured in DMEM/F12, Glutamax (Gibco #10565018), 10% FBS (Gibco 310091148), 1 × Pen/Strep (Gibco 315140-148), and 6 ug/mL Puromycin (Gibco #A1113803).
Primary cells (passage 3–5) were grown on Cell carrier Ultra, col1 coated 96-well plates (Perkin Elmer, #6055700) at a density of 25,000 cells/well. Once the cells adhere, they were starved in serum free media for 24 h followed by addition of treatments i.e. 5 ng/mL TGFβ (Biolegend #580702) ± inhibitors. Cells were pre-treated with inhibitors for 30 min prior to the addition of TGFβ stimulation. 48hours post treatment, the cells were fixed in 4% methanol free paraformaldehyde (ThermoFisher Scientific #28908) for 20 min at room temperature and incubated with anti-alpha smooth muscle Actin antibody (Abcam #ab7817) at 1:4000 overnight at 4 °C. […]

T1 sequence (P43406 31-1044): as the sequence (P43406 31-1044) above
T1 sequence (O70309 24-798): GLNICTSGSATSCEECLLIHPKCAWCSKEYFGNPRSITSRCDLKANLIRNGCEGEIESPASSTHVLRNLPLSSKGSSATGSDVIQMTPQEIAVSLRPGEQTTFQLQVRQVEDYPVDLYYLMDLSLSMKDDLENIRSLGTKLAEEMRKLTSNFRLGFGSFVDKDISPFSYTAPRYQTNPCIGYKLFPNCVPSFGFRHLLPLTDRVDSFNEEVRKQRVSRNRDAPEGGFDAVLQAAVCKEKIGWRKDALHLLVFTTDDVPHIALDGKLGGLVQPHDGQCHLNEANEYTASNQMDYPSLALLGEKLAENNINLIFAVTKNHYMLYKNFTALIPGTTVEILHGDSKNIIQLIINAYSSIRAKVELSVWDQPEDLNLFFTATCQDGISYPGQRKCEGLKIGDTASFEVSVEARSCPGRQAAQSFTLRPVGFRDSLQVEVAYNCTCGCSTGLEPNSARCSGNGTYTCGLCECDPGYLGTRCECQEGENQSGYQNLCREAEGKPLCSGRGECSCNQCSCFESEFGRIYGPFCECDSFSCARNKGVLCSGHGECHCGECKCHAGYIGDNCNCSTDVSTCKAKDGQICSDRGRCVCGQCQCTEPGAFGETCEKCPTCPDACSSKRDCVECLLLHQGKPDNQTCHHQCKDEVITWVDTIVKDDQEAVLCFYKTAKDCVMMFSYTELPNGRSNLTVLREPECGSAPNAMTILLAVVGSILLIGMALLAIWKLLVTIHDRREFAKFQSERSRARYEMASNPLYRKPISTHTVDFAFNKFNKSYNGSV

Effect on cell adhesion, mouse αvβ5 [2]: decreased
Effect on cell adhesion, mouse αvβ3 [3]: decreased
SMILES: COc1ccc(C(CC(=O)O)N2CCN(CCCc3ccc4c(n3)NCCC4)C2=O)cn1 (stereo not shown) [MK-0429]
Effect on cell adhesion, CHOK1 parental cells [1]: little inhibitory activity
αSMA intensity and percentage of stimulated cells following TGFβ treatment [4]: significantly reduced
